Data taken from patent US6509011B1, “Method of hair treatment using organic amino compounds” (Unilever Home & Personal Care USA, division of Conopco, Inc., priority 1999, dated 2003).

Test: Cuticle abrasion of treated hair switches
Procedure: Cuticle abrasion and sensory experiments were performed on bleached hair with unbleached “virgin” hair as a control.
A shampoo base was used to treat hair switches:
Two samples of the above formulation were prepared, with the addition of 0.2% arginine to one of the samples.
Four sets of switches were used and treated as follows:
Set 1. Bleached switches washed 6 times in base, with final base wash containing 0.2% arginine.
Set 2. Bleached switches based washed 6 times in base with 0.2% arginine
Set 3. Bleached switches washed 6 times in base without 0.2% arginine
Set 4. Unbleached virgin hair washed in base without arginine.
The treated samples were subjected to cuticle abrasion (in duplicate).

Structure (SMILES): N=C(N)NCCC[C@H](N)C(=O)O [arginine]
- cuticle cohesion after cuticle abrasion (set 1: bleached switches washed 6 times in base, only final wash containing 0.2% arginine): evidence of improved cuticle cohesion
- amount of cuticle removed by abrasion (set 1: bleached switches washed 6 times in base, only final wash containing 0.2% arginine, compared with set 3 (no arginine)): Significantly less cuticle was removed than set 3
- removed cuticle sample size and appearance (set 2: bleached switches washed 6 times in shampoo base with 0.2% arginine): closer in sample size and appearance to the unbleached sample
- cuticle cohesion after cuticle abrasion (set 2: bleached switches washed 6 times in shampoo base with 0.2% arginine, compared with set 3 (base without arginine)): significantly better cuticle cohesion
